We go through seven compounds from ChEMBL document CHEMBL5728514, “[1,2,4]Triazolo[4,3-a]quinoxaline derivative, method for preparing same, and pharmaceutical composition for preventing or treating BET protein-related diseases, containing same as active ingredient” (2021).

The assay addresses Bromodomain-containing protein 4 (Homo sapiens, UniProt O60885). The assay is described as follows: A mixture comprising 100 nM GST-BRD4 (BD1+BD2) and 100 nM biotinylated acetyl-histone H4 (Lys5,8,12,16) peptide was prepared in assay buffer (50 mM HEPES pH 7.4; 25 mM NaCl; 0.05% Tween 20; 0.1% bovine serum albumin (BSA); 10 mM dithiothreitol (DTT)). After adding 6 μl of the mixture to the diluent, 6 μl of the pre-mixed AlphaLISA Glutathione Acceptor Beads and AlphaScreen Streptavidin Donor Beads (PerkinElmer, 10 μg/ml in assay buffer, respectively) was added thereto. The samples were incubated in the dark at room temperature for 30 minutes (shaking at 300 rpm). Then, the signals were measured with PerkinElmer Envision HTS Multilabel Reader using an alpha screen protocol of PerkinElmer. Each plate contained the negative control in which biotinylated acetyl-histone H4 peptide and GST-BRD4 (BD1+BD2) were replaced by assay buffer. In the case of using the software GraphPad Prism for calculation, the negative control point was input as a low standard value. The positive control (probe molecule l-BET762 containing protein/peptide mixture) proceeded to pipetting.

Turning to `COCCOc1ccc2c(c1)nc(NCCCCNC(C)=O)c1nnc(C)n12`, the IC50 is 91 nM. To `Cc1nnc2c(NCCCCNC(=O)C(C)(C)C)nc3ccc(F)cc3n12` belongs 61 nM. To `Cc1nnc2c(NCCCCNC(=O)C(C)C)nc3ccc(F)cc3n12` belongs 77 nM. On to `Cc1nnc2c(NCCCCNC(=O)c3ccccc3)nc3ccc(NC(=O)C(C)C)cc3n12`, for which the half-maximal inhibitory concentration (IC50) was 56 nM.

For `Cc1nnc2c(NCCCCNC(=O)c3ccccc3)nc3ccccc3n12`, the IC50 is 58 nM. To `Cc1nnc2c(NCCCCNC(=O)OC(C)C)nc3c(C(F)(F)F)cc(F)cc3n12` belongs 91 nM; to `Cc1ccc2nc(NCCCCNC(=O)C(C)(C)C)c3nnc(C)n3c2c1`, 56 nM.

A word on the IC50: it is the concentration at which inhibition is half-maximal.
